This test concerns the target T1, BACE-1 (Homo sapiens, UniProt P56817).
T1 construct: endogenous in cells; host or cells: HEK-293 cells stably transfected with wild type APP695
As to the kind of experiment: Cellular BACE-1 inhibition assay (in vitro cellular Amyloidβ 1-40 production, HTRF immunoassay). In kind it is cell-based. Here is the method: Materials and Methods: HEK-293 cells stably transfected with a DNA construct containing the coding sequence for the wild type APP695 sequence were grown in Dulbecco's Modified Eagle Medium (“DMEM”) supplemented with 10% fetal bovine serum, penicillin/streptomycin and 150 μg/mL G418. Cells were plated in 96-well plates at 35,000 cells/well and allowed to attach for 8-12 hours. Media was changed to DMEM supplemented with 10% fetal bovine serum, penicillin/streptomycin 15 minutes prior to compound addition. Diluted compounds were then added at a final concentration of 0.5% DMSO. After 48 hours, 4 μL of media from each well was added to a corresponding well of a 384 well plate (Perkin Elmer Cat#6008280) containing the HTRF reagents. HTRF reagents were obtained from the CisBio Amyloid β 1-40 peptide assay kit (Cat#62B40PEC) and were prepared as follows anti-peptide β (1-40)-Cryptate and anti-peptide […] were stored in 2 plate aliquots at −80° C. Diluent and Reconstitution buffer were stored at 4° C. Aliquots of the two antibodies were diluted 1:100 with Reconstitution buffer, and this mixture was diluted 1:2 with Diluent. 12 μL of the reagent mixture was added to the required wells of the 384 well assay plate. The assay plate was incubated at 4° C. for 17 hours and then analyzed for fluorescence at 665 and 620 nm. The following compounds were tested in the above assay. Some compounds were tested more than once, and the average is reported below.
Background: In TR-FRET formats the signal depends on donor and acceptor labels being close together.

Where [1] appears, read: inhibition of Amyloidβ 1-40 production, HEK-293 cells stably transfected with wild type APP695, 48 hours incubation, average where tested more than once, read-out: IC50.

Read-outs that look alike come from different tables or passages of the source.

T1 sequence (P56817 46-501): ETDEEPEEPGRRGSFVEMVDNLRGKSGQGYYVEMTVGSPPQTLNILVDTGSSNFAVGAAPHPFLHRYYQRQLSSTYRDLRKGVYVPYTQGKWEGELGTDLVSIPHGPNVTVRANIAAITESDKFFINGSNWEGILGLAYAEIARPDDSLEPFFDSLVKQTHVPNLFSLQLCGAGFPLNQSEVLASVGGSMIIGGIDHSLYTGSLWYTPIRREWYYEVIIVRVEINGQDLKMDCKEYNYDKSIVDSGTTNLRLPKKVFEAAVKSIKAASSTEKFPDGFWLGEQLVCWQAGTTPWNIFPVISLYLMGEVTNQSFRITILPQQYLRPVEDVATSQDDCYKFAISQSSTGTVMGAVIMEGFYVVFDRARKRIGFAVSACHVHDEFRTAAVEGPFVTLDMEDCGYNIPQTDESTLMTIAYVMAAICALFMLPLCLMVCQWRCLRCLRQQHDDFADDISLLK

The term IC50 denotes the concentration that gives 50% inhibition. For the compound `NC1=NC2(CO1)c1cc(-c3cccnc3F)ccc1OC1CCN(C(=O)OCc3ccccc3)C[C@@H]12` (mixture of isomers) [Example 5, rac-trans-(4a,10a)-benzyl 2′-amino-8-(2-fluoropyridin-3-yl)-1,4,4a,10a-tetrahydro-5′H-spiro[chromeno[3,2-c]pyridine-10,4′-oxazole]-2(3H)-carboxylate], the IC50 under setting [1] was determined as 133 nM.
Take `NC1=NC2(CO1)c1cc(-c3cncc(Cl)c3)ccc1OC1CCCCC12` (racemic) [Example 9, 7′-(5-chloropyridin-3-yl)-1′,2′,3′,4′,4a′,9a′-hexahydro-5H-spiro[oxazole-4,9′-xanthen]-2-amine]: the IC50 under setting [1] was 43.4 nM.
On to `NC1=NC2(CO1)c1cc(NC(=O)c3ccc(Br)cn3)ccc1OC1CCCCC12` (racemic) [Example 17, N-(2-amino-1′,2′,3′,4′,4a′,9a′-hexahydro-5H-spiro[oxazole-4,9′-xanthene]-7′-yl)-5-bromopicolinamide], for which the IC50 under setting [1] was determined as 147 nM.
Regarding `NC1=NC2(CO1)c1cc(-c3cccnc3F)ccc1OC1CCNC[C@@H]12` (mixture of isomers) [Example 41, rac-trans-(4a,10a)-8-(2-fluoropyridin-3-yl)-1,2,3,4,4a,10a-hexahydro-5′H-spiro[chromeno[3,2-c]pyridine-10,4′-oxazol]-2′-amine], under setting [1], the IC50 was determined as 1330 nM.
`NC1=NC2(CO1)c1cc(-c3cccnc3F)ccc1OC1CCN(CC(F)(F)F)C[C@@H]12` (mixture of isomers) [Example 44, rac-trans-(4a,10a)-8-(2-fluoropyridin-3-yl)-2-(2,2,2-trifluoroethyl)-1,2,3,4,4a,10a-hexahydro-5′H-spiro[chromeno[3,2-c]pyridine-10,4′-oxazol]-2′-amine]: the IC50 under setting [1] came to 304 nM.
Take `NC1=NC2(CS1)c1cc(-c3cncnc3)ccc1O[C@H]1CC(O)CC[C@@H]12` (relative stereo) [Example 26, (4a′S*,9a′R*)-2-amino-7′-(pyrimidin-5-yl)-1′,2′,3′,4′,4a′,9a′-hexahydro-5H-spiro[thiazole-4,9′-xanthen]-3′-ol]: the IC50 under setting [1] was 86.6 nM.
For `NC1=N[C@@]2(CO1)c1cc(-c3cncc(Cl)c3)ccc1OC1CC[C@H](OCC3CC3)C[C@@H]12` (relative stereo) [Example 28, (4R*,4a′S*,9a′R*)-7′-(5-chloropyridin-3-yl)-2′-(cyclopropylmethoxy)-1′,2′,3′,4′,4a′,9a′-hexahydro-5H-spiro[oxazole-4,9′-xanthen]-2-amine], under setting [1], the IC50 was 7.8 nM.
Turning to `NC1=N[C@]2(CO1)c1cc(-c3cncc(Cl)c3)ccc1OC1CC[C@H](OCC3CC3)C[C@@H]12` (relative stereo) [Example 29, (4S*,4a′S*,9a′R*)-7′-(5-chloropyridin-3-yl)-2′-(cyclopropylmethoxy)-1′,2′,3′,4′,4a′,9a′-hexahydro-5H-spiro[oxazole-4,9′-xanthen]-2-amine], under setting [1], the IC50 turned out to be 8.9 nM.
As for `C[C@]12CCCO[C@@H]1[C@]1(COC(N)=N1)c1cc(-c3cncc(F)c3)ccc1O2` (relative stereo) [Example 88, (4R*,4a′S*,10a′R*)-8′-(5-fluoropyridin-3-yl)-4a′-methyl-3′,4′,4a′,10a′-tetrahydro-2′H,5H-spiro[oxazole-4,10′-pyrano[3,2-b]chromen]-2-amine], the IC50 under setting [1] is 154 nM.
The same measure, in the same setting: the figure for `C[C@H]1OCCC2Oc3ccc(-c4cncc(Cl)c4)cc3[C@@]3(COC(N)=N3)[C@@H]21` (relative stereo) [Example 90, (1′R*4R*,4a′R*,10a′R*)-8′-(5-chloropyridin-3-yl)-1′-methyl-3′,4′,4a′,10a′-tetrahydro-1′H,5H-spiro[oxazole-4,10′-pyrano[4,3-b]chromen]-2-amine] is 1340 nM.
In the case of `C[C@@]12CCOC[C@H]1C1(COC(N)=N1)c1cc(-c3cccnc3F)ccc1C2` (relative stereo) [Example 118, (4aR*,10aR*)-8-(2-fluoropyridin-3-yl)-4a-methyl-1,3,4,4a,5,10a-hexahydro-5′H-spiro[benzo[g]isochromene-10,4′-oxazol]-2′-amine], the IC50 turned out to be 219 nM.
Take `NC1=N[C@@]2(CO1)c1cc(-c3cccnc3F)ccc1O[C@H]1CCN(C(=O)CC3CC3)C[C@@H]12` (relative stereo) [Example 218, 1-((4aS*,4′R*,10aR*)-2′-amino-8-(2-fluoropyridin-3-yl)-1,4,4a,10a-tetrahydro-5′H-spiro[chromeno[3,2-c]pyridine-10,4′-oxazol]-2(3H)-yl)-2-cyclopropylethanone]: the IC50 under setting [1] stood at 457 nM.
With `NC1=NC2(CO1)c1cc(-c3cncc(Cl)c3)ccc1O[C@@H]1CCCC[C@H]12` (single isomer, unassigned) [Example 10, 7′-(5-chloropyridin-3-yl)-1′,2′,3′,4′,4a′,9a′-hexahydro-5H-spiro[oxazole-4,9′-xanthen]-2-amine], the IC50 under setting [1] worked out at 58.5 nM.
`NC1=NC2(CO1)c1cc(-c3cncnc3)ccc1OC1CCCCC12` (single isomer, unassigned) [Example 11, 7′-(pyrimidin-5-yl)-1′,2′,3′,4′,4a′,9a′-hexahydro-5H-spiro[oxazole-4,9′-xanthen]-2-amine]: the IC50 under setting [1] worked out at 69.5 nM.
Regarding `NC1=NC2(CO1)c1cc(-c3cncnc3)ccc1OC1CCCCC12` (single isomer, unassigned) [Example 12, 7′-(pyrimidin-5-yl)-1′,2′,3′,4′,4a′,9a′-hexahydro-5H-spiro[oxazole-4,9′-xanthen]-2-amine], the IC50 under setting [1] was 60.7 nM.
The same measure, in the same setting: next, `Cc1nc(C(=O)Nc2ccc3c(c2)C2(COC(N)=N2)C2CCCCC2O3)co1` (single isomer, unassigned) [Example 14, N-(2-amino-1′,2′,3′,4′,4a′,9a′-hexahydro-5H-spiro[oxazole-4,9′-xanthene]-7′-yl)-2-methyloxazole-4-carboxamide]: 73.5 nM; `Cc1nc(C(=O)Nc2ccc3c(c2)C2(COC(N)=N2)[C@@H]2CCCCC2O3)co1` (single isomer, unassigned) [Example 15, N-(2-amino-1′,2′,3′,4′,4a′,9a′-hexahydro-5H-spiro[oxazole-4,9′-xanthene]-7′-yl)-2-methyloxazole-4-carboxamide]: 58.7 nM.
Turning to `NC1=NC2(CO1)c1cc(NC(=O)c3ccc(Cl)cn3)ccc1OC1CCCCC12` (single isomer, unassigned) [Example 16, N-(2-amino-1′,2′,3′,4′,4a′,9a′-hexahydro-5H-spiro[oxazole-4,9′-xanthene]-7′-yl)-5-chloropicolinamide], under setting [1], the half-maximal inhibitory concentration (IC50) came out at 171 nM.
As for `NC1=NC2(CS1)c1cc(-c3cncc(Cl)c3)ccc1OC1CC(O)CC[C@@H]12` (single isomer, unassigned) [Example 25, (4a′S*,9aR*)-2-amino-7′-(5-chloropyridin-3-yl)-1′,2′,3′,4′,4a′,9a′-hexahydro-5H-spiro[thiazole-4,9′-xanthen]-3′-ol], the half-maximal inhibitory concentration (IC50) under setting [1] was 24.1 nM.
For the compound `CC(C)CS(=O)(=O)N1CC[C@@H]2Oc3ccc(-c4cccnc4F)cc3[C@]3(COC(N)=N3)[C@H]2C1` (single isomer, unassigned) [Example 120], the IC50 under setting [1] amounted to 41 nM.
Turning to `NC1=NC2(CO1)c1cc(-c3cccnc3F)ccc1OC1CCC(O)C[C@@H]12` (stereo in doubt) [Example 31, (4a′S*,9a′R*)-2-amino-7′-(2-fluoropyridin-3-yl)-1′,2′,3′,4′,4a′,9a′-hexahydro-5H-spiro[oxazole-4,9′-xanthen]-2′-ol], under setting [1], the IC50 was determined as 47.3 nM.
